# Reference: US20230278972A1, “SUBSTITUTED HALOALKYL SULFONANILIDE HERBICIDES” (FMC Corporation, priority 2020, published 2023)
# Legend:
# Format in all cases: in vivo
# [1] = system: wheat (Triticum aestivum); test: Test A postemergence, wheat; conditions: Postemergence, 0 to 100 scale (0 no effect, 100 complete control); for Plant response rating, Wheat: 125 g ai/ha; for Wheat plant response rating: 500 g ai/ha, visual injury vs untreated controls after approx. 10 days
# Method in brief: (§1)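 Test chemicals, formulated in a non-phytotoxic solvent mixture with surfactant, were sprayed postemergence on plants 2 to 10 cm tall at the one- to two-leaf stage. Preemergence treatment was a directed soil spray onto freshly seeded pots. Both used a loam soil and sand blend.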
# [2] = system: barnyardgrass (Echinochloa crus-galli); test: Test A preemergence, barnyardgrass; conditions: Preemergence, 0 to 100 scale (0 no effect, 100 complete control)
# Method in brief: (§2)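 Whole-plant herbicidal screen in pots of loam blended with sand. Sprays used a surfactant-containing, non-phytotoxic solvent vehicle. Timing was preemergence soil-directed at planting or postemergence at the one- to two-leaf stage (2–10 cm).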
# [3] = system: galium (catchweed bedstraw, Galium aparine); test: Test A postemergence, galium; conditions: Postemergence, 0 to 100 scale (0 no effect, 100 complete control); for Plant response rating, Galium: 125 g ai/ha; for Galium plant response rating: 500 g ai/ha, visual injury vs untreated controls after approx. 10 days
# Method in brief: as §1
# kochia (Bassia scoparia) [4] = test: Test A preemergence, kochia; conditions: Preemergence; for Plant response rating, Kochia: 0 to 100 scale (0 no effect, 100 complete control)
# Method in brief: as §2
# [5] = system: Ryegrass, Italian (Italian ryegrass, Lolium multiflorum); test: Test A postemergence, Ryegrass, Italian; conditions: Postemergence, 0 to 100 scale (0 no effect, 100 complete control); for Plant response rating, Ryegrass, Italian: 125 g ai/ha; for Ryegrass, Italian plant response rating: 500 g ai/ha, visual injury vs untreated controls after approx. 10 days
# Method in brief: as §2
# corn (Zea mays) = test: Test A postemergence, corn; conditions: Postemergence, 0 to 100 scale (0 no effect, 100 complete control); for Plant response rating, Corn: 125 g ai/ha; for Corn plant response rating: 500 g ai/ha, visual injury vs untreated controls after approx. 10 days
# Method in brief: as §2
# [6] = system: Foxtail, Giant (giant foxtail, Setaria faberi); test: Test A postemergence, Foxtail, Giant; conditions: Postemergence, 0 to 100 scale (0 no effect, 100 complete control); for Plant response rating, Foxtail, Giant: 125 g ai/ha; for Foxtail, Giant plant response rating: 500 g ai/ha, visual injury vs untreated controls after approx. 10 days
# Method in brief: as §2
# [7] = system: Foxtail, Giant (giant foxtail, Setaria faberi); test: Test A preemergence, Foxtail, Giant; conditions: Preemergence; for Plant response rating, Foxtail, Giant: 0 to 100 scale (0 no effect, 100 complete control)
# Method in brief: as §2
# [8] = system: blackgrass (Alopecurus myosuroides); test: Test A postemergence, blackgrass; conditions: Postemergence, 0 to 100 scale (0 no effect, 100 complete control); for Plant response rating, Blackgrass: 125 g ai/ha; for Blackgrass plant response rating: 500 g ai/ha, visual injury vs untreated controls after approx. 10 days
# Method in brief: as §2
# [9] = system: Ryegrass, Italian (Italian ryegrass, Lolium multiflorum); test: Test A preemergence, Ryegrass, Italian; conditions: Preemergence; for Plant response rating, Ryegrass, Italian: 0 to 100 scale (0 no effect, 100 complete control)
# Method in brief: as §2
# [10] = system: ragweed (common ragweed, Ambrosia artemisiifolia); test: Test A preemergence, ragweed; conditions: Preemergence; for Plant response rating, Ragweed: 0 to 100 scale (0 no effect, 100 complete control)
# Method in brief: as §2
# kochia (Bassia scoparia) [11] = test: Test A postemergence, kochia; conditions: Postemergence, 0 to 100 scale (0 no effect, 100 complete control); for Plant response rating, Kochia: 125 g ai/ha; for Kochia plant response rating: 500 g ai/ha, visual injury vs untreated controls after approx. 10 days
# Method in brief: as §2
# [12] = system: ragweed (common ragweed, Ambrosia artemisiifolia); test: Test A postemergence, ragweed; conditions: Postemergence, 0 to 100 scale (0 no effect, 100 complete control); for Plant response rating, Ragweed: 125 g ai/ha; for Ragweed plant response rating: 500 g ai/ha, visual injury vs untreated controls after approx. 10 days
# Method in brief: as §2
# [13] = system: pigweed (Amaranthus retroflexus); test: Test A preemergence, pigweed; conditions: for Plant response rating, Pigweed: 0 to 100 scale (0 no effect, 100 complete control)
# From the text: Seeds of plant species selected from barnyardgrass (Echinochloa crus-galli), kochia (Bassia scoparia), ragweed (common ragweed, Ambrosia artemisiifolia), Ryegrass, Italian (Italian ryegrass, Lolium multiflorum), Foxtail, Giant (giant foxtail, Setaria faberi), and pigweed (Amaranthus retroflexus) were planted into a blend of loam soil and sand and treated preemergence with a directed soil spray using test chemicals formulated in a non-phytotoxic solvent mixture which included a surfactant. At the same time, plants selected from these weed species and also wheat (Triticum aestivum), corn (Zea mays), blackgrass (Alopecurus myosuroides), and galium (catchweed bedstraw, Galium aparine) were planted in pots containing the same blend of loam soil and sand and treated with postemergence applications of test chemicals formulated in the same manner. Plants ranged in height from 2 to 10 cm and were in the one- to two-leaf stage for the postemergence treatment. […] A dash (-) response means no test result.
# [14] = system: pigweed (Amaranthus retroflexus); test: Test A postemergence, pigweed; conditions: Postemergence, 0 to 100 scale (0 no effect, 100 complete control); for Plant response rating, Pigweed: 125 g ai/ha; for Pigweed plant response rating: 500 g ai/ha, visual injury vs untreated controls after approx. 10 days
# Method in brief: as §2
# [15] = 125 g ai/ha, visual injury, approx. 10 days
# [16] = 500 g ai/ha, visual injury on 0 to 100 scale (0 no effect, 100 complete control), approximately 10 days
SMILES,"Plant response rating, Wheat [1]",Wheat plant response rating [1],"Plant response rating, Barnyardgrass [2, 15]","Plant response rating, Barnyardgrass ([2]; 500 g ai/ha)","Plant response rating, Galium [3]",Galium plant response rating [3],"Plant response rating, Kochia (kochia (Bassia scoparia) [4]; [15])","Plant response rating, Ryegrass, Italian [5]","Ryegrass, Italian plant response rating [5]","Plant response rating, Corn (corn (Zea mays))",Corn plant response rating (corn (Zea mays)),"Plant response rating, Foxtail, Giant [6]","Foxtail, Giant plant response rating [6]","Plant response rating, Foxtail, Giant [7, 15]","Plant response rating, Blackgrass [8]",Blackgrass plant response rating [8],"Plant response rating, Ryegrass, Italian [9, 15]","Plant response rating, Ragweed [10, 15]","Plant response rating, Kochia (kochia (Bassia scoparia) [11])",Kochia plant response rating (kochia (Bassia scoparia) [11]),also measured
Cc1cc(Cl)c(NS(=O)(=O)C(F)(F)F)cc1C(=O)N1CCC(Cl)CC1 [Compound 224],30,70,70,100,90,90,0,30,60,10,60,30,70,90,0,40,50,50,50,70,"Plant response rating, Kochia (kochia (Bassia scoparia) [4]; 500 g ai/ha): 90; Plant response rating, Foxtail, Giant ([7]; 500 g ai/ha): 100; Plant response rating, Ryegrass, Italian ([9]; 500 g ai/ha): 100; Plant response rating, Ragweed ([10]; 500 g ai/ha): 80; Plant response rating, Ragweed [12]: 50; Ragweed plant response rating [12]: 90; Plant response rating, Pigweed [13, 15]: 100; Plant response rating, Pigweed ([13]; 500 g ai/ha): 100; Plant response rating, Pigweed [14]: 60; Pigweed plant response rating [14]: 100"
Cc1cc(C)c(C(=O)N2CCC(F)(F)C2)cc1NS(=O)(=O)C(F)(F)F [Compound 202],30,60,30,90,50,80,40,20,70,0,20,0,70,60,0,0,40,70,20,50,"Plant response rating, Kochia (kochia (Bassia scoparia) [4]; 500 g ai/ha): 80; Plant response rating, Foxtail, Giant ([7]; 500 g ai/ha): 70; Plant response rating, Ryegrass, Italian ([9]; 500 g ai/ha): 70; Plant response rating, Ragweed ([10]; 500 g ai/ha): 90; Plant response rating, Ragweed [12]: 80; Ragweed plant response rating [12]: 90; Plant response rating, Pigweed [13, 15]: 100; Plant response rating, Pigweed ([13]; 500 g ai/ha): 100; Plant response rating, Pigweed [14]: 70; Pigweed plant response rating [14]: 100"
Cc1cc(C)c(C2=NOC3(CCC3)C2)cc1NS(=O)(=O)C(F)(F)F [Compound 228],0,70,100,100,80,90,60,0,60,10,70,0,40,90,0,0,100,10,20,80,"Kochia plant response rating (kochia (Bassia scoparia) [4]; [16]): 90; Foxtail, Giant plant response rating [7, 16]: 100; Ryegrass, Italian plant response rating [9, 16]: 100; Ragweed plant response rating [10, 16]: 70; Plant response rating, Ragweed [12]: 20; Ragweed plant response rating [12]: 30; Plant response rating, Pigweed [13, 15]: 100; Pigweed plant response rating [13, 16]: 100; Plant response rating, Pigweed [14]: 30; Pigweed plant response rating [14]: 70"
